Key:
[1] = refractive index (Na D-line) (dimensionless); mn = molality of the nth substance listed, in mol/kg; details: 298.15 K, 100 kPa, Liquid, Standard Abbe refractometry
[2] = mn = molality of the nth substance listed, in mol/kg; details: 298.15 K, 100 kPa, Liquid; for viscosity: Capillary tube (Ostwald / Ubbelohde) method; for mass density: Vibrating tube method
[3] = 298.15 K, 100 kPa, Liquid
[4] = refractive index (Na D-line) (dimensionless); details: 298.15 K; 100 kPa; Liquid; Standard Abbe refractometry

CCCCCCn1cc[n+](C)c1.[Cl-] [1-hexyl-3-methylimidazolium chloride] + CC(=O)N(C)C
Details | mass density, [2] [kg/m3] | refractive index, [1] | viscosity, [2] [mPa·s]
m1 = 0.0226 | 936.94 | 1.4283 | 1.029
m1 = 0.0468 | 937.6 | 1.429 | 1.042
m1 = 0.06 | 937.96 | 1.4295 | 1.057
m1 = 0.0797 | 938.48 | 1.4297 | 1.072
m1 = 0.1002 | 939.02 | 1.43 | 1.087
m1 = 0.1216 | 939.55 | 1.4303 | 1.106
m1 = 0.141 | 940.04 | 1.4307 | 1.123
m1 = 0.1621 | 940.56 | 1.431 | 1.129
m1 = 0.1781 | 940.95 | 1.4312 | 1.137
m1 = 0.2012 | 941.49 | 1.432 | 1.142

C(=NCCN=Cc1ccccn1)c1ccccn1 [N,N'-bis(2-pyridinylmethylene)-1,2-ethanediamine] + CC(=O)N(C)C
Details | mass density, [2] [kg/m3] | refractive index, [1] | viscosity, [2] [mPa·s]
m1 = 0.0471 | 937.73 | 1.4291 | 1.035
m1 = 0.091 | 939.12 | 1.43 | 1.069
m1 = 0.1327 | 940.31 | 1.4317 | 1.082
m1 = 0.1768 | 941.81 | 1.433 | 1.1

CC(=O)N(C)C [N,N-dimethylethanamide]
[3]
Details | mass density [kg/m3] | viscosity [mPa·s]
Capillary tube (Ostwald / Ubbelohde) method | – | 0.989
Vibrating tube method | 936.31 | –

Details | refractive index
[4] | 1.4278
